# Patent US10125118B2, “Heteroaryl compounds and their use as therapeutic drugs” (Dong-A Socio Holdings Co., Ltd., priority 2015, dated 2018)
# Molecular target: human c-MER catalytic domain (Homo sapiens (Human), UniProt Q12866)
# Experiment: LanthaScreen TR-FRET kinase assay, c-MER
# Conditions: read-out: Mer TK inhibition (IC50); Biochemical IC50, TR-FRET, 10 uM ATP
# Sequence of human c-MER catalytic domain (Q12866 587-858): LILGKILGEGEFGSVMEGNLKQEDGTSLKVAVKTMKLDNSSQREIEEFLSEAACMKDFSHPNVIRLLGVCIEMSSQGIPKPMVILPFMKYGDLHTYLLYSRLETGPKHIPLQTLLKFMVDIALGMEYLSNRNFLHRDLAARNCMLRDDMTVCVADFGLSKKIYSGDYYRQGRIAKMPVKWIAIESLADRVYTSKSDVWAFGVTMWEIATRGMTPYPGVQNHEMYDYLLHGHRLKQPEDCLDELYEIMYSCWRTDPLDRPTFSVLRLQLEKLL
row,Compound,IC50 [µM]
1,"Cc1ccc(CNc2ncc(-c3cnn(C)c3)cc2C(=O)N[C@H]2CCC[C@@H]2OCc2ccccc2)cc1C [Example 72, N-((1S,2S)-2-(benzyloxy)cyclopentyl)-2-((3,4-dimethylbenzyl-)amino)-5-(1-methyl-1H-pyrazol-4-yl)nicotinamide]",> 1
2,"Cn1cc(-c2cnc(N)c(C(=O)N[C@H]3CCC4(OCCO4)[C@@H]3OCc3ccccc3)c2)cn1 [Example 73, 2-amino-N-((6R,7S)-6-(benzyloxy)-1,4-dioxaspiro[4.4]nonan-7-yl)-5-(1-methyl-1H-pyrazol-4-yl)nicotinamide]",> 1
3,"Cn1cc(-c2cnc(N)c(C(=O)N[C@H]3CCC[C@@H]3COc3cccc(C(=O)N4CCCCC4)c3)c2)cn1 [Example 83, 2-amino-5-(1-methyl-1H-pyrazol-4-yl)-N-((1S,2S)-2-((3-(piperidine-1-carbonyl)phenoxy)methyl)cyclopentyl)nicotinamide]",> 1
4,"C[C@H](CNC(=O)c1cc(-c2cnn(C)c2)cnc1N)OCc1ccccc1 [Example 95, (R)-2-amino-N-(2-(benzyloxy)propyl)-5-(1-methyl-1H-pyrazol-4-yl)nicotinamide]",> 1
5,"C[C@@H](CNC(=O)c1cc(-c2cnn(C)c2)cnc1N)OCc1ccccc1 [Example 96, (S)-2-amino-N-(2-(benzyloxy)propyl)-5-(1-methyl-1H-pyrazol-4-yl)nicotinamide]",> 1
6,"C[C@@H](COCc1ccccc1)NC(=O)c1cc(-c2cnn(C)c2)cnc1N [Example 97, (S)-2-amino-N-(1-(benzyloxy)propan-2-yl)-5-(1-methyl-1H-pyrazol-4-yl)nicotinamide]",> 1
7,"C[C@H](COCc1ccccc1)NC(=O)c1cc(-c2cnn(C)c2)cnc1N [Example 98, (R)-2-amino-N-(1-(benzyloxy)propan-2-yl)-5-(1-methyl-1H-pyrazol-4-yl)nicotinamide]",> 1
8,"Cn1cc(-c2cnc(N)c(C(=O)NC(C)(C)COCc3ccccc3)c2)cn1 [Example 99, 2-amino-N-(1-(benzyloxy)-2-methylpropan-2-yl)-5-(1-methyl-1H-pyrazol-4-yl)nicotinamide]",> 1
9,"Cc1ccc(COC[C@@H](C)NC(=O)c2cc(-c3cnn(C)c3)cnc2N)cc1C [Example 100, (R)-2-amino-N-(1-((3,4-dimethylbenzyl)oxy)propan-2-yl)-5-(1-methyl-1H-pyrazol-4-yl)nicotinamide]",> 1
10,"C[C@H](COCc1ccc(Cl)cc1)NC(=O)c1cc(-c2cnn(C)c2)cnc1N [Example 102, (R)-2-amino-N-(1-((4-chlorobenzyl)oxy)propan-2-yl)-5-(1-methyl-1H-pyrazol-4-yl)nicotinamide]",> 1
11,"C[C@@H](CNC(=O)c1cc(-c2cnn(C)c2)cnc1N)OCc1ccc(Cl)cc1 [Example 103, (S)-2-amino-N-(2-((4-chlorobenzyl)oxy)propyl)-5-(1-methyl-1H-pyrazol-4-yl)nicotinamide]",> 1
12,"C[C@H](COCc1ccc(Cl)c(Cl)c1)NC(=O)c1cc(-c2cnn(C)c2)cnc1N [Example 104, (R)-2-amino-N-(1-((3,4-dichlorobenzyl)oxy)propan-2-yl)-5-(1-methyl-1H-pyrazol-4-yl)nicotinamide]",> 1
13,"COc1cccc(COC[C@@H](C)NC(=O)c2cc(-c3cnn(C)c3)cnc2N)c1 [Example 106, (R)-2-amino-N-(1-((3-methoxybenzyl)oxy)propan-2-yl)-5-(1-methyl-1H-pyrazol-4-yl)nicotinamide]",> 1
14,"COc1cccc(CO[C@@H](C)CNC(=O)c2cc(-c3cnn(C)c3)cnc2N)c1 [Example 107, (S)-2-amino-N-(2-((3-methoxybenzyl)oxy)propyl)-5-(1-methyl-1H-pyrazol-4-yl)nicotinamide]",> 1
15,"CC[C@H](COCc1ccccc1)NC(=O)c1cc(-c2cnn(C)c2)cnc1N [Example 108, (R)-2-amino-N-(1-(benzyloxy)butan-2-yl)-5-(1-methyl-1H-pyrazol-4-yl)nicotinamide]",> 1
16,"CC(C)[C@@H](COCc1ccccc1)NC(=O)c1cc(-c2cnn(C)c2)cnc1N [Example 109, (S)-2-amino-N-(1-(benzyloxy)-3-methylbutan-2-yl)-5-(1-methyl-1H-pyrazol-4-yl)nicotinamide]",> 1
17,"CC(C)[C@H](COCc1ccccc1)NC(=O)c1cc(-c2cnn(C)c2)cnc1N [Example 110, (R)-2-amino-N-(1-(benzyloxy)-3-methylbutan-2-yl)-5-(1-methyl-1H-pyrazol-4-yl)nicotinamide]",> 1
18,"CC(C)C[C@@H](COCc1ccccc1)NC(=O)c1cc(-c2cnn(C)c2)cnc1N [Example 111, (S)-2-amino-N-(1-(benzyloxy)-4-methylpentan-2-yl)-5-(1-methyl-1H-pyrazol-4-yl)nicotinamide]",> 1
19,"CC(C)C[C@H](COCc1ccccc1)NC(=O)c1cc(-c2cnn(C)c2)cnc1N [Example 112, (R)-2-amino-N-(1-(benzyloxy)-4-methylpentan-2-yl)-5-(1-methyl-1H-pyrazol-4-yl)nicotinamide]",> 1

row,Compound,IC50 [µM]
1,"Cn1cc(-c2cnc(N)c(C(=O)N[C@@H](COCc3ccccc3)C3CCCCC3)c2)cn1 [Example 113, (R)-2-amino-N-(2-(benzyloxy)-1-cyclohexylethyl)-5-(1-methyl-1H-pyrazol-4-yl)nicotinamide]",> 1
2,"Cn1cc(-c2cnc(N)c(C(=O)N[C@@H](CO)C3CCCCC3)c2)cn1 [Example 114, (R)-2-amino-N-(1-cyclohexyl-2-hydroxyethyl)-5-(1-methyl-1H-pyrazol-4-yl)nicotinamide]",> 1
3,"Cn1cc(-c2cnc(N)c(C(=O)N[C@H](COCc3ccccc3)c3ccccc3)c2)cn1 [Example 115, (S)-2-amino-N-(2-(benzyloxy)-1-phenylethyl)-5-(1-methyl-1H-pyrazol-4-yl)nicotinamide]",> 1
4,"Cn1cc(-c2cnc(N)c(C(=O)N[C@@H](COCc3ccccc3)c3ccccc3)c2)cn1 [Example 116, (R)-2-amino-N-(2-(benzyloxy)-1-phenylethyl)-5-(1-methyl-1H-pyrazol-4-yl)nicotinamide]",> 1
5,"Cn1cc(-c2cnc(N)c(C(=O)N[C@H](COCc3ccccc3)Cc3ccccc3)c2)cn1 [Example 117, (S)-2-amino-N-(1-(benzyloxy)-3-phenylpropan-2-yl)-5-(1-methyl-1H-pyrazol-4-yl)nicotinamide]",> 1
6,"Cn1cc(-c2cnc(N)c(C(=O)N[C@@H](COCc3ccccc3)Cc3ccccc3)c2)cn1 [Example 118, (R)-2-amino-N-(1-(benzyloxy)-3-phenylpropan-2-yl)-5-(1-methyl-1H-pyrazol-4-yl)nicotinamide]",> 1
7,"C[C@H](COCC1CCC1)NC(=O)c1cc(-c2cnn(C)c2)cnc1N [Example 119, (R)-2-amino-N-(1-(cyclobutylmethoxy)propan-2-yl)-5-(1-methyl-1H-pyrazol-4-yl)nicotinamide]",> 1
8,"COC(=O)[C@H](COCc1ccccc1)NC(=O)c1cc(-c2cnn(C)c2)cnc1N [Example 120, methyl N-(2-amino-5-(1-methyl-1H-pyrazol-4-yl)nicotinoyl)-O-benzyl-L-serinate]",> 1
9,"COC(=O)[C@@H](NC(=O)c1cc(-c2cnn(C)c2)cnc1N)[C@@H](C)OCc1ccccc1 [Example 121, methyl N-(2-amino-5-(1-methyl-1H-pyrazol-4-yl)nicotinoyl)-O-benzyl-L-threoninate]",> 1
10,"CNC(=O)[C@@H](NC(=O)c1cc(-c2cnn(C)c2)cnc1N)[C@@H](C)OCc1ccccc1 [Example 122, 2-amino-N-((2S,3R)-3-(benzyloxy)-1-(methylamino)-1-oxobutan-2-yl)-5-(1-methyl-1H-pyrazol-4-yl)nicotinamide]",> 1
11,"CCCNC(=O)[C@@H](NC(=O)c1cc(-c2cnn(C)c2)cnc1N)[C@@H](C)OCc1ccccc1 [Example 123, 2-amino-N-((2S,3R)-3-(benzyloxy)-1-oxo-1-(propylamino)butan-2-yl)-5-(1-methyl-1H-pyrazol-4-yl)nicotinamide]",> 1
12,"C[C@@H](OCc1ccccc1)[C@H](NC(=O)c1cc(-c2cnn(C)c2)cnc1N)C(=O)NC1CCCC1 [Example 124, 2-amino-N-((2S,3R)-3-(benzyloxy)-1-(cyclopentylamino)-1-oxobutan-2-yl)-5-(1-methyl-1H-pyrazol-4-yl)nicotinamide]",> 1
13,"C[C@@H](OCc1ccccc1)[C@H](NC(=O)c1cc(-c2cnn(C)c2)cnc1N)C(=O)N1CCCC1 [Example 125, 2-amino-N-((2S,3R)-3-(benzyloxy)-1-oxo-1-(pyrrolidin-1-yl)butan-2-yl)-5-(1-methyl-1H-pyrazol-4-yl)nicotinamide]",> 1
14,"C[C@H](NC(=O)c1cc(-c2cnn(C)c2)cnc1N)C(=O)OCc1ccccc1 [Example 126, benzyl (2-amino-5-(1-methyl-1H-pyrazol-4-yl)nicotinoyl)-L-alaninate]",> 1
15,"Cn1cc(-c2cnc(N)c(C(=O)N[C@@H](CO)C(=O)OCc3ccccc3)c2)cn1 [Example 128, benzyl (2-amino-5-(1-methyl-1H-pyrazol-4-yl)nicotinoyl)-L-serinate]",> 1
16,"Cn1cc(-c2cnc(N)c(C(=O)N[C@H]3CCC[C@@H]3OCc3ccccc3)n2)cn1 [Example 129, 3-amino-N-((1S,2S)-2-(benzyloxy)cyclopentyl)-6-(1-methyl-1H-pyrazol-4-yl)pyrazine-2-carboxamide]",> 1
17,"Cn1cc(-c2cnc(N)c(C(=O)N[C@H]3CCCc4ccccc43)n2)cn1 [Example 131, (S)-3-amino-6-(1-methyl-1H-pyrazol-4-yl)-N-(1,2,3,4-tetrahydronaphthalen-1-yl)pyrazine-2-carboxamide]",> 1
18,"Cc1c(N)cccc1-c1ccc(CO[C@H]2CCC[C@@H]2NC(=O)c2cc(-c3cnn(C)c3)cnc2N)cc1 [Example 139, 2-amino-N-((1S,2S)-2-((3′-amino-2′-methyl-[1,1′-biphenyl]-4-yl)methoxy)cyclopentyl)-5-(1-methyl-1H-pyrazol-4-yl)nicotinamide]",> 1
19,Cn1cc(-c2cnc(N)c(C(=O)N[C@H]3CCC[C@@H]3OCc3ccc(-c4cccc(CN)c4)cc3)c2)cn1 [Example 143],> 1
